Experiments:
Assay type in all cases: in vivo
[1] = tested on: Ipomea hederaceae (IPOHE); assay: Pre-emergence biological efficacy (percentage damage); conditions: Ipomoea hederacea, 312 h, dose 1,000 g/ha, evaluated after 13 days, 100=total damage, 0=no damage
How it was run: (§1)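 Pre-emergence spray, 250 or 1000 g/ha, acetone/water 50:50 + 0.5% Tween 20, applied 1 d after sowing in standard soil. Glasshouse 24/16 °C, 14 h light, 65% RH, watered twice daily. Scored day 13, 0–100% damage.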

[2] = tested on: Echinochloa crus-galli (ECHCG); assay: as above; conditions: Echinochloa crus-galli, 312 h, dose 1,000 g/ha, evaluated after 13 days, 100=total damage, 0=no damage
How it was run: as §1

[3] = tested on: Alopecurus myosuroides (ALOMY); assay: as above; conditions: Alopecurus myosuroides, 312 h, dose 1,000 g/ha, evaluated after 13 days, 100=total damage, 0=no damage
How it was run: as §1

[4] = tested on: Amaranthus retoflexus (AMARE); assay: as above; conditions: Amaranthus retroflexus, 312 h, dose 1,000 g/ha, evaluated after 13 days, 100=total damage, 0=no damage
How it was run: as §1

[5] = tested on: Setaria faberi (SETFA); assay: as above; conditions: Setaria faberi, 312 h, dose 1,000 g/ha, evaluated after 13 days, 100=total damage, 0=no damage
How it was run: as §1

[6] = tested on: Solanum nigrum (SOLNI); assay: as above; conditions: Solanum nigrum, 312 h, dose 1,000 g/ha, evaluated after 13 days, 100=total damage, 0=no damage
How it was run: as §1

[7] = tested on: Ipomea hederaceae (IPOHE); assay: Post-emergence biological efficacy (percentage damage); conditions: Ipomoea hederacea, 312 h, dose 1,000 g/ha, evaluated after 13 days, 100=total damage, 0=no damage
How it was run: (§2)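 Seedlings grown 8 days in soil in a glasshouse (24/16 °C day/night, 14 h light, 65% humidity), then sprayed with compound in acetone/water (50:50) with 0.5% Tween 20 at 250 or 1000 g/ha. Damage scored visually after 13 days (0 = none, 100 = total).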

[8] = tested on: Echinochloa crus-galli (ECHCG); assay: as above; conditions: Echinochloa crus-galli, 312 h, dose 1,000 g/ha, evaluated after 13 days, 100=total damage, 0=no damage
How it was run: as §2

[9] = tested on: Alopecurus myosuroides (ALOMY); assay: as above; conditions: Alopecurus myosuroides, 312 h, dose 1,000 g/ha, evaluated after 13 days, 100=total damage, 0=no damage
How it was run: as §2

[10] = tested on: Amaranthus retoflexus (AMARE); assay: as above; conditions: Amaranthus retroflexus, 312 h, dose 1,000 g/ha, evaluated after 13 days, 100=total damage, 0=no damage
How it was run: as §2

[11] = tested on: Setaria faberi (SETFA); assay: as above; conditions: Setaria faberi, 312 h, dose 1,000 g/ha, evaluated after 13 days, 100=total damage, 0=no damage
How it was run: as §2

[12] = tested on: Solanum nigrum (SOLNI); assay: as above; conditions: Solanum nigrum, 312 h, dose 1,000 g/ha, evaluated after 13 days, 100=total damage, 0=no damage
How it was run: as §2

Structure (SMILES) | pest or weed control at 1000 g/ha [1] [%] | pest or weed control at 1000 g/ha [2] [%] | pest or weed control at 1000 g/ha [3] [%] | pest or weed control at 1000 g/ha [4] [%] | pest or weed control at 1000 g/ha [5] [%] | pest or weed control at 1000 g/ha [6] [%] | pest or weed control at 1000 g/ha [7] [%] | pest or weed control at 1000 g/ha [8] [%] | pest or weed control at 1000 g/ha [9] [%] | pest or weed control at 1000 g/ha [10] [%] | pest or weed control at 1000 g/ha [11] [%] | pest or weed control at 1000 g/ha [12] [%]
COC(=O)c1nc(-c2ccc(Cl)c(OC)c2F)nc(N)c1C(C)=O [Compound 27-53, 4-Amino-2-(4-chloro-2-fluoro-3-methoxy-phenyl)-6-methoxycarbonyl-5-methylcarbonyl-pyrimidine] | 100 | 20 | 20 | 90 | 10 | 100 | 60 | 30 | 30 | 100 | 40 | 90
C=Cc1c(N)nc(-c2ccc(Cl)c(OC)c2F)nc1C(=O)OC [Compound 27-61, 4-Amino-2-(4-chloro-2-fluoro-3-methoxyphenyl)-5-ethenyl-6-methoxycarbonyl-pyrimidine] | 90 | 90 | 90 | 100 | 90 | 100 | 80 | 90 | 90 | 100 | 100 | 80
C=C(C)c1c(N)nc(-c2ccc(Cl)c(OC)c2F)nc1C(=O)OC [Compound 27-63, 4-Amino-2-(4-chloro-2-fluoro-3-methoxyphenyl)-6-methoxycarbonyl-5-(prop-1-en-2-yl)-pyrimidine] | 100 | 80 | 50 | 100 | 50 | 100 | 90 | 70 | 60 | 100 | 90 | 90
C=C(OCC)c1c(N)nc(-c2ccc(Cl)c(OC)c2F)nc1C(=O)OC [Compound 27-67] | 40 | 20 | 20 | 30 | 10 | 100 | 60 | 10 | 0 | 40 | 10 | 80
COC(=O)c1nc(-c2ccc(Cl)c(OC)c2F)nc(N)c1C=C(C)C [Compound 27-69, 4-Amino-2-(4-chloro-2-fluoro-3-methoxyphenyl)-6-methoxycarbonyl-5-(2-methylprop-1-enyl)-pyrimidine] | 30 | 30 | 40 | 100 | 60 | 100 | 40 | 10 | 40 | 90 | 40 | 80
C=Cc1c(N)nc(-c2cc(F)c(Cl)c(F)c2)nc1C(=O)OC [Compound 30-61, 4-Amino-2-(4-chloro-3,5-difluorophenyl)-5-ethenyl-6-methoxycarbonyl-pyrimidine] | 0 | 0 | 0 | 0 | 0 | 20 | 10 | 0 | 0 | 10 | 0 | 80
CCc1c(N)nc(-c2ccc(C(F)(F)F)cc2)nc1C(=O)OC [Compound 31-42, 4-amino-5-ethyl-6-methoxycarbonyl-2-(4-trifluoro-methylphenyl)-pyrimidine] | 0 | 0 | 0 | 0 | 0 | 0 | 0 | 0 | 0 | 0 | 0 | 10
COC(=O)c1nc(-c2ccc(C(F)(F)F)cc2)nc(N)c1C(C)=O [Compound 31-53, 4-amino-6-methoxycarbonyl-5-methylcarbonyl-2-(4-trifluoromethylphenyl)-pyrimidine] | 90 | 90 | 80 | 100 | 90 | 100 | 90 | 100 | 90 | 100 | 100 | 100
C=Cc1c(N)nc(-c2ccc(C(F)(F)F)cc2)nc1C(=O)OC [Compound 31-61, 4-Amino-5-ethenyl-6-methoxycarbonyl-2-(4-trifluoromethyl-phenyl)-pyrimidine] | 0 | 0 | 0 | 10 | 0 | 0 | 10 | 0 | 20 | 70 | 0 | 70
C/C=C/c1c(N)nc(-c2ccc(C(F)(F)F)cc2)nc1C(=O)OC [Compound 31-62, 4-amino-6-methoxycarbonyl-5-prop-1-enyl-2-(4-tri-fluoromethylphenyl)-pyrimidine] | 0 | 0 | 0 | 20 | 0 | 0 | 50 | 0 | 0 | 30 | 10 | 50
C=CCc1c(N)nc(-c2ccc(C(F)(F)F)cc2)nc1C(=O)OC [Compound 31-63, 4-Amino-6-methoxycarbonyl-5-(prop-1-en-3-yl)-2-(4-trifluoromethyl-phenyl)-pyrimidine] | 0 | 0 | 0 | 0 | 0 | 0 | 40 | 0 | 0 | 40 | 0 | 50
C=C(C)c1c(N)nc(-c2ccc(C(F)(F)F)cc2)nc1C(=O)OC [Compound 31-64, 4-Amino-6-methoxycarbonyl-5-(prop-1-en-2-yl)-2-(4-trifluoromethyl-phenyl)-pyrimidine] | 0 | 0 | 0 | 0 | 0 | 0 | 60 | 0 | 0 | 40 | 20 | 60
C=C(OCC)c1c(N)nc(-c2ccc(C(F)(F)F)cc2)nc1C(=O)OC [Compound 31-67, 4-amino-5-(1-ethoxyethenyl)-6-methoxycarbonyl-2-(4-trifluoromethylphenyl)-pyrimidine] | 0 | 0 | 0 | 0 | 0 | 0 | 80 | 0 | 0 | 50 | 0 | 80

— patent US20120053053A1, “PYRIMIDINE DERIVATIVES AND THEIR USE AS HERBICIDES” (SYNGENTA CROP PROTECTION, LLC, priority 2009, published 2012)
